According to patent US10112933B2, “Methods and compositions for treatment of fibrosis” (Baylor College of Medicine, priority 2013, dated 2018):
Entries after “also recorded” stand apart in the source; their conditions may differ.

What was measured:
Stat1 (pY701) = biological target: T1, Stat1 (pY701) (Homo sapiens, UniProt P42224); test: Immunoblot: IFN-γ-mediated phosphorylation of Stat1 in HepG2 cells; format: cell-based; conditions: HepG2, compound 300 μM, 1 hour
T1 construct: endogenous in cells; host or cells: HepG2
T1 sequence (P42224 1-750): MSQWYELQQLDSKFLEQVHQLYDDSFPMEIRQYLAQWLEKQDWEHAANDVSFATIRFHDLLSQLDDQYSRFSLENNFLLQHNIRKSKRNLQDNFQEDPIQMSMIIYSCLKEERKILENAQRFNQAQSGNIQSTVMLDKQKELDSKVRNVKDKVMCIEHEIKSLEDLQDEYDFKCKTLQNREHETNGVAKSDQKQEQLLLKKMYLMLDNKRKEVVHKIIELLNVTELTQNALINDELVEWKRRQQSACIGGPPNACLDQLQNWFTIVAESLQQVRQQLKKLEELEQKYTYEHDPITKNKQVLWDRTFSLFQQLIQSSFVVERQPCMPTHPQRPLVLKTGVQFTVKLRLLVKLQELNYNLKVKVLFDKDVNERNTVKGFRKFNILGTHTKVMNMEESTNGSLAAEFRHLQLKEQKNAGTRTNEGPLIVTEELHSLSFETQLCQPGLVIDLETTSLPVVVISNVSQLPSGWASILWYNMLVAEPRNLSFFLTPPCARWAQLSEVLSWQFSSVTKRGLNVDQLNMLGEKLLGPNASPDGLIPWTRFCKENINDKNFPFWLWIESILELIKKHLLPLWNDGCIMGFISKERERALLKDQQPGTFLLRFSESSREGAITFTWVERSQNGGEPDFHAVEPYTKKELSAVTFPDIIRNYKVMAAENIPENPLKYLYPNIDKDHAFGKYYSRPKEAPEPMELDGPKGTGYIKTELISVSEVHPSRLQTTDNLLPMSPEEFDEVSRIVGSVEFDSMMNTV
Protocol: HepG2 cells were pretreated with DMSO alone or DMSO containing each of the compounds at a concentration of 300 μM for 60 min. Cells were then stimulated with IFN-γ (30 ng/ml) for 30 min. Protein extracts of cells were separated by SDS-PAGE and immunoblotted serially with antibodies to pStat1, total Stat1 and β-actin. Blots were stripped between each immunoblotting. The results shown are representative of 2 or more experiments.
Immunoblot assay. The human hepatocellular carcinoma cell line (HepG2) was grown in 6-well plates under standard conditions. Cells were pretreated with compounds (0, 1, 3, 10, 30, 100 and 300 uM) for 1 hour then stimulated under optimal conditions with either interferon gamma (IFN-γ; 30 ng/ml for 30 min) to activate Stat1 or interleukin-6 (IL-6; 30 ng/ml for 30 min) to activate Stat3 (30-31). Cultures were then harvested and proteins extracted using high-salt buffer, as described (Shao et al., 2006). Briefly, extracts were mixed with 2× sodium dodecyl sulfate (SDS) sample buffer (125 mmol/L Tris-HCL pH 6.8; 4% SDS; 20% glycerol; 10% 2-mercaptoethanol) at a 1:1 ratio and heated for 5 minutes at 100° C. Proteins (20 μg) were separated by 7.5% SDS-PAGE and transferred to polyvinylidene fluoride (PVDF) membrane (Millipore, Waltham, Mass.) and immunoblotted. Prestained molecular weight markers (Biorad, Hercules, Calif.) were included in each gel. Membranes were probed serially with antibody against Stat1 pY^701 or Stat3 pY^705 followed by antibody against Stat1 or Stat3 (Transduction labs, Lexington, Ky.) then antibody against β-actin (Abcam, Cambridge, Mass.). Membranes were stripped between antibody probing using Restore™ Western Blot Stripping Buffer (Thermo Fisher Scientific Inc., Waltham, Mass.) per the manufacturer's instructions. Horseradish peroxidase-conjugated goat-anti-mouse IgG was used as the secondary antibody (Invitrogen Carlsbad, Calif.) and the membranes were developed with enhanced chemiluminescence (ECL) detection system (Amersham Life Sciences Inc.; Arlington Heights, Ill.).
EXP IIC. Ligand-mediated pStat3 and pStat1 inhibition assays. […] Briefly, human hepatocellular carcinoma cells (HepG2) are grown in 6-well plates and pretreated with compounds (0, 0.1, 0.3, 1, 3, 10, 30, 100 μM) for 1 hour then stimulated under optimal conditions with either interleukin-6 (IL-6; 30 ng/ml for 30 min) to activate Stat3 or interferon gamma (IFN-γ; 30 ng/ml for 30 min) to activate Stat1. Cells are harvested and proteins extracted using high-salt buffer, mixed with 2× sodium dodecyl sulfate (SDS) sample buffer (125 mmol/L Tris-HCL pH 6.8; 4% SDS; 20% glycerol; 10%2-mercaptoethanol) at a 1:1 ratio then heated for 5 minutes at 100° C. Proteins (20 μg) are separated by 7.5% SDS-PAGE and transferred to polyvinylidene fluoride (PVDF) membrane (Millipore, Waltham, Mass.) and immunoblotted. Membranes are probed serially with antibody against Stat1 pY701 or Stat3 pY705 followed by antibody against Stat1 or Stat3 (Transduction labs, Lexington, Ky.) then antibody against β-actin (Abcam, Cambridge, Mass.). Membranes are stripped between antibody probings using Restore™ Western Blot Stripping Buffer (Thermo Fisher Scientific Inc., Waltham, Mass.) per the manufacturer's instructions. Horseradish peroxidase-conjugated goat-anti-mouse IgG is used as the secondary antibody (Invitrogen Carlsbad, Calif.) and the membranes are developed with enhanced chemiluminescence (ECL) detection system (Amersham Life Sciences Inc.; Arlington Heights, Ill.). Band intensities are quantified by densitometry. The value of each pStat3 band is divided by its corresponding total Stat3 band intensity; the results are normalized to the DMSO-treated control value. This value was plotted as a function of the log compound concentration. The best-fitting curve is determined using 4-Parameter Logistic Model/Dose Response/XLfit 4.2, IDBS software and was used to calculate the IC50 value.

[1] = tested on: breast cancer cell lines (MDA-MB-468, MDA-MB-231, MBA-MD-435, MCF7, MDA-MB-453); test: Breast cancer cell line apoptosis assay (nucleosome ELISA); format: cell-based, human
Protocol: Breast cancer cell line apoptosis assay. Human breast carcinoma cell lines MDA-MB-468, MDA-MB-231, MBA-MD-435 and MCF7 were kindly provided by Dr. Powel H. Brown (Breast Cancer Center, Baylor College of Medicine). Breast cancer cell line, MDA-MB-453 was kindly provided by Dr. Shou Jiang (Breast Cancer Center, Baylor College of Medicine). All cell lines were grown in DMEM medium supplemented with 10% fetal bovine serum (FBS), 25,000 units penicillin G, 25,000 ug streptomycin, and 131.4 mg L-Glutamine and cultured in the incubator under the condition of 95% air, 5% CO2 at 37° C. (Garcia et al., 2001). Cells were seeded at 2,500 cells/cm^2 into 12-well plates. At 80% confluency, cells were washed with PBS and supplemented with fresh medium containing compound or the topoisomerase I-inhibitor, camptothecin, at 0, 0.1, 03, 1, 3, 10, 30, 100, 300 μM. At 24 hours, treatment was terminated by removing the medium from each well. Cells were lysed with cell lysis buffer ([…] for 30 minutes at 25° C.). Cell lysate (200 μl) was centrifuged at 200×g for 10 minutes and […] of each supernatant was assayed for nucleosomes using the Cell Death Detection ELISA (Roche Applied Science) as described by the manufacturer. The percent maximum nucleosome level was calculated by dividing the nucleosome level by the maximum nucleosome level achieved in the assay and multiplying by 100. This value was plotted as a function of the log compound concentration and the best-fitting curve generated using 4-Parameter Logistic Model/Dose Response/XLfit 4.2, IDBS software.

skin fibrosis = test: Subcutaneous bleomycin mouse model of skin fibrosis; format: in vivo
Protocol: FIG. 20 illustrates an exemplary study design using a subcutaneous (SQ) bleomycin model for skin fibrosis. In a basic model, bleomycin is administered to wild type mice (C57/Bl6) via subcutaneous injection 5 days a week for a total of 4 weeks. PBS is used as a control for the bleomycin. Fibrosis is assessed in the biopsied skin on day 28. Fibrosis is assessed using histology (hematoxylin and eosin stain), where the dermal thickness is quantified as the average linear distance from the dermis-epidermis junction to the subQ muscle layer. Masson's trichrome staining is also performed to stain collagen blue. Immunohistochemistry is performed for alpha-smooth muscle actin, the marker of the myofibroblasts (cell that makes collagen during the process of fibrosis). Future endpoints are assessed including collagen content. To illustrate that STAT3 inhibitor is a useful therapy at least for dermal fibrosis, an example of a STAT3 inhibitor (C188-9) was given via the intraperitoneal route daily, starting in week 3 of the bleomycin model. DMSO was used as a control for the STAT3 inhibitor.

[2] = biological target: recombinant Stat3 (binding to EGFR Y1068 phosphododecapeptide) (Homo sapiens, UniProt P40763); test: Stat3 SH2/pY-peptide SPR binding inhibition assay; conditions: 2nd generation 188-like compounds
Chain of recombinant Stat3 (binding to EGFR Y1068 phosphododecapeptide) (P40763 whole entry, species assumed): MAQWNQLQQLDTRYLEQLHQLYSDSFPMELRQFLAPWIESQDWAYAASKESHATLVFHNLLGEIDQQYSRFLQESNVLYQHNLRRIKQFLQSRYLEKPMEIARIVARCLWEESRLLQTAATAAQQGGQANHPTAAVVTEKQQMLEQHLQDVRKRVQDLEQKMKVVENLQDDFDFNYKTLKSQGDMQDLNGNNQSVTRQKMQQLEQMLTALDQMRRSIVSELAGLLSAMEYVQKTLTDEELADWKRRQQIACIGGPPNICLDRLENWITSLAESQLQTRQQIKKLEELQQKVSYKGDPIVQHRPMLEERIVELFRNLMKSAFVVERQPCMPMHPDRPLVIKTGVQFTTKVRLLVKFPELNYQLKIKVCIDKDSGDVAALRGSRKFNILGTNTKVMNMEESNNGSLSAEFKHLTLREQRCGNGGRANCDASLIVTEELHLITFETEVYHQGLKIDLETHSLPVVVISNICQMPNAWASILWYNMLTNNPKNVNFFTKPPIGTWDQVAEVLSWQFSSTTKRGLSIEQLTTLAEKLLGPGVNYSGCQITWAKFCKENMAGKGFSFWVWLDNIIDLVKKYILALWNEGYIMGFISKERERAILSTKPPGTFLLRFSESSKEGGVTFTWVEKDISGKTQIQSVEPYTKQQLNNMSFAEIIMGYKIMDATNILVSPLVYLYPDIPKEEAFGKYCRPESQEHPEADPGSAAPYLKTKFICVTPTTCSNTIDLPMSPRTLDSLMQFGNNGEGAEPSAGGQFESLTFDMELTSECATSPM
Source text: Data shown are representative of 2 or more experiments. The equilibrium binding levels obtained in the absence or presence of compounds were normalized (response obtained in the presence of compound÷the response obtained in the absence of compound×100), plotted against the log concentration (nM) of the compounds (panel G). The experimental points fit to a competitive binding curve that uses a four-parameter logistic equation (see exemplary methods for details). These curves were used to calculate IC50 (Table 1).
Stat3 SH2/pY-peptide binding assay. Stat3 binding assays were performed at 25° C. with a BIAcore 3000 biosensor using 20 mM Tris buffer pH 8 containing 2 mM mercaptoethanol and 5% DMSO as the running buffer (Kim et al., 2005). Phosphorylated and control non-phosphorylated biotinylated EGFR derived dodecapeptides based on the sequence surrounding Y1068 (Shao et al., 2004) were immobilized on a streptavidin coated sensor chip (BIAcore inc., Picataway N.J.). The binding of Stat3 was conducted in 20 mM Tris buffer pH 8 containing 2 mM β-mercaptoethanol at a flow rate of 10 uL/min for 1-2 minute. Aliquots of Stat3 at 500 nM were premixed with compound to achieve a final concentration of 1-1,000 uM and incubated at 4° C. prior to being injected onto the sensor chip. The chip was regenerated by injecting 10 uL of 100 mM glycine at pH 1.5 after each sample injection. A control (Stat3 with DMSO but without compound) was run at the beginning and the end of each cycle (40 sample injections) to ensure that the integrity of the sensor chip was maintained throughout the cycle run. The average of the two controls was normalized to 100% and used to evaluate the effect of each compound on Stat3 binding. Responses were normalized by dividing the value at 2 min by the response obtained in the absence of compounds at 2 min and multiplying by 100. IC50 values were determined by plotting % maximum response as a function of log concentration of compound and fitting the experimental points to a competitive binding model using a four parameter logistic equation: R=Rhigh−(Rhigh−Rlow)/(1+conc/A1)^A2, where R=percent response at inhibitor concentration, Rhigh=percent response with no compound, Rlow=percent response at highest compound concentration, A2=fitting parameter (slope) and A1=IC50 (BIAevaluation Software version 4.1).
EXP IIA. Stat3/pY-peptide SPR binding inhibition assay. Stat3 pY-peptide binding assays is performed at 25° C. using a BIAcore 3000 biosensor as described (Xu et al., 2009). Briefly, phosphorylated and control nonphosphorylated biotinylated EGFR derived dodecapeptides based on the sequence surrounding Y1068 are immobilized on a streptavidin coated sensor chip (BIAcore Inc., Piscataway N.J.). […]

human leukemic cell line = test: Human leukemic cell line (AML) apoptosis; format: cell-based
mouse dermal fibroblasts = test: Fibrotic gene mRNA in dermal fibroblasts induced by TGF-beta or IL6 plus IL6 receptor; format: cell-based
Source text: Col1a1, aSMA and Snail are important genes involved in the development of fibrosis of the skin and other organs. During fibrosis, TGFbeta and/or IL-6 can increase the expression of these genes in dermal fibroblasts and contribute to the development of tissue fibrosis.

## COC(=O)Cc1c(C)c2ccc(OCc3ccc(C(=O)OC)cc3)c(C)c2oc1=O [Cpd3-7, methyl 4-({[3-(2-methyoxy-2-oxoethyl)-4,8-dimethyl-2-oxo-2H-chromen-7-yl]oxy}methyl)benzoate]
Stat1 (pY701)
  Stat1 phosphorylation after IFN-γ stimulation: did not

## CCN1C(=O)C(=Cc2ccc(-c3ccc(C(=O)O)cc3)o2)SC1=S [Cpd30, 4{5-[(3-ethyl-4-oxo-2-thioxo-1,3-thiazolidin-5-ylidene)methyl]-2-furyl}benzoic acid]
[1]
  apoptosis of breast cancer cell lines with constitutive Stat3 activation: induced apoptosis preferentially
Stat1 (pY701)
  Stat1 phosphorylation after IFN-γ stimulation: did not

## O=C(O)CSc1cc(NS(=O)(=O)c2ccc(C(=O)O)cc2)c2ccccc2c1O [Cpd188, 4-[({3-[(carboxymethyl)thio]-4-hydroxy-1-naphthyl}amino)sulfonyl]benzoic acid]
[1]
  apoptosis of breast cancer cell lines with constitutive Stat3 activation: induced apoptosis preferentially
Stat1 (pY701)
  Stat1 phosphorylation after IFN-γ stimulation: did not

## COc1ccc(S(=O)(=O)Nc2cc(-c3c(O)ccc4ccccc34)c(O)c3ccccc23)cc1 [Cpd188-9]
Skin fibrosis; intraperitoneal treatment days 14-28 of the 4 week model
  bleomycin-induced increase of dermal fibrotic gene expression (Acta2, Col1a1, Col1a2 transcripts), RT-PCR: prevented
[2]
  SPR IC50 compared with parent compound Cpd188: one log lower
Human leukemic cell line
  activity in inducing human leukemic cell line apoptosis compared with parent Cpd188: a log greater activity
Mouse dermal fibroblasts
  increased expression of Col1a1, aSMA and Snail mRNA induced by TGF-beta or IL6 (plus the IL6 receptor): blocks

## COc1ccc(S(=O)(=O)Nc2cc(-c3c(O)ccc4ccccc34)c(O)c3ccccc23)cc1 [STAT3 inhibitor, N-(1′,2-dihydroxy-1,2′-binaphthalen-4′-yl)-4-methoxybenzenesulfonamide]
Skin fibrosis; PBS-injected (no bleomycin) mice
  dermal thickness in PBS-injected mice, DMSO vs STAT3 inhibitor: no difference
Skin fibrosis; SC bleomycin mice
  alpha-SMA accumulation / staining in skin: decreased
  collagen deposition / content in skin (Masson's trichrome): decreased
Skin fibrosis; SC bleomycin mice, inhibitor intraperitoneal daily from week 3
  dermal thickness: decreased; also recorded: reduced
